Measured values from ChEMBL document CHEMBL5724696, “Autophagy assay results for EUbOPEN Chemogenomics Library” (2024).

Assays:
Assay type in all cases: functional, Homo sapiens
TERT-RPE1 = test: (§1) Here: values are normalized to the negative (DMSO; defined as 0% autophagy induction) and positive (250nM Torin1; mTOR inhibitor; defined as maximal inducer of autophagy = 100%) control compounds and represented as % of autophagy induction. […] The impact of autophagy induction on cells is complex and depends on the affected target. As such, the magnitude of a phenotype may not be equally mirrored in the %-value of autophagy induction and vice versa. The dynamics of the induction may indicate the mode of activation: e.g. activation via phosphorylation or a signaling cascade may occur fast, while activation via transcription factors may take considerably longer. […] Of note, treatment concentrations may be sub-optimal for specific compounds, leading to false negative annotations.; conditions: Culturing Media DMEM/F12 (1:1), 1 % Penicillin/Streptomycin, 10% Fetal bovin serum Add-On: No, Screening Media Control DMEM/F12 (1:1), Screening Media Samples DMEM/F12 (1:1)
U2OS [1] = test: as §1; conditions: Culturing Media DMEM, 1 % Penicillin/Streptomycin, 10% Fetal bovin serum Add-On: No, Screening Media Control DMEM, Screening Media Samples DMEM
U2OS [2] = test: as §1; conditions: Culturing Media DMEM, 1 % Penicillin/Streptomycin, 10% Fetal bovin serum Add-On: No, Screening Media Control DMEM, Screening Media Samples DMEM; remark: listed apart in the source
[3] = Compound Concentration 0.5 uM, Timepoint 12 hours
[4] = Compound Concentration 0.5 uM, Timepoint 24 hours
[5] = Compound Concentration 0.5 uM, Timepoint 36 hours
[6] = Compound Concentration 0.5 uM, Timepoint 60 hours
[7] = Compound Concentration 2 uM, Timepoint 12 hours
[8] = Compound Concentration 2 uM, Timepoint 24 hours
[9] = Compound Concentration 2 uM, Timepoint 36 hours
[10] = Compound Concentration 2 uM, Timepoint 60 hours
[11] = Compound Concentration 10 uM, Timepoint 12 hours
[12] = Compound Concentration 10 uM, Timepoint 24 hours
[13] = Compound Concentration 10 uM, Timepoint 36 hours
[14] = Compound Concentration 10 uM, Timepoint 60 hours

| SMILES | autophagy induction (TERT-RPE1; [3]) [%] | autophagy induction (TERT-RPE1; [4]) [%] | autophagy induction (TERT-RPE1; [5]) [%] | autophagy induction (TERT-RPE1; [6]) [%] | autophagy induction (TERT-RPE1; [7]) [%] | autophagy induction (TERT-RPE1; [8]) [%] | autophagy induction (TERT-RPE1; [9]) [%] | autophagy induction (TERT-RPE1; [10]) [%] | autophagy induction (TERT-RPE1; [11]) [%] | autophagy induction (TERT-RPE1; [12]) [%] | autophagy induction (TERT-RPE1; [13]) [%] | autophagy induction (TERT-RPE1; [14]) [%] | autophagy induction (U2OS [1]; [3]) [%] | autophagy induction (U2OS [1]; [4]) [%] | autophagy induction (U2OS [1]; [5]) [%] | autophagy induction (U2OS [1]; [6]) [%] | autophagy induction (U2OS [1]; [7]) [%] | autophagy induction (U2OS [1]; [8]) [%] | autophagy induction (U2OS [1]; [9]) [%] | autophagy induction (U2OS [1]; [10]) [%] | other results |
| --- | --- | --- | --- | --- | --- | --- | --- | --- | --- | --- | --- | --- | --- | --- | --- | --- | --- | --- | --- | --- | --- |
| C[C@]1(C(=O)N(CCCC(=O)O)Cc2cccc(Cl)c2)CCN1C(=O)c1csc2ccccc12 [GLPG-0974] | -9.58 | -12.1708 | -12.5657 | -12.3909 | -4.812 | -8.05 | -10.5216 | -11.4009 | -6.234 | -7.969 | -9.743 | -14.0611 | 2.89 | 1.055 | -0.2915 | 0.8021 | 5.8948 | 0.1613 | -0.9761 | -1.363 | autophagy induction (U2OS [1]; [11]): 4.366%; autophagy induction (U2OS [1]; [12]): 0.7536%; autophagy induction (U2OS [1]; [13]): -0.03596%; autophagy induction (U2OS [1]; [14]): 0.5874%; autophagy induction (U2OS [2]; [3]): -10.0746%; autophagy induction (U2OS [2]; [4]): -10.8247%; autophagy induction (U2OS [2]; [5]): -4.098%; autophagy induction (U2OS [2]; [6]): -4.538%; autophagy induction (U2OS [2]; [7]): 5.378%; autophagy induction (U2OS [2]; [8]): 3.105%; autophagy induction (U2OS [2]; [9]): 6.198%; autophagy induction (U2OS [2]; [10]): 1.696%; autophagy induction (U2OS [2]; [11]): 3.852%; autophagy induction (U2OS [2]; [12]): 1.348%; autophagy induction (U2OS [2]; [13]): 0.8582%; autophagy induction (U2OS [2]; [14]): -7.082% |
| CCc1cc(C(C)=O)c(O)cc1OCCCCCC(C)(C)c1nn[nH]n1 [LY-255283] | -9.9842 | -11.9426 | -14.7708 | -17.4457 | -8.34 | -9.195 | -15.7799 | -19.0275 | -6.621 | -4.037 | -5.452 | -5.811 | 3.867 | -0.4862 | -0.9692 | -0.6256 | 7.835 | 0.4992 | -1.36 | 0.1348 | autophagy induction (U2OS [1]; [11]): 10.6288%; autophagy induction (U2OS [1]; [12]): 4.072%; autophagy induction (U2OS [1]; [13]): 1.093%; autophagy induction (U2OS [1]; [14]): 0.5552%; autophagy induction (U2OS [2]; [3]): 7.95%; autophagy induction (U2OS [2]; [4]): 0.1788%; autophagy induction (U2OS [2]; [5]): 0.4616%; autophagy induction (U2OS [2]; [6]): 2.676%; autophagy induction (U2OS [2]; [7]): 6.9255%; autophagy induction (U2OS [2]; [8]): 1.248%; autophagy induction (U2OS [2]; [9]): 3.296%; autophagy induction (U2OS [2]; [10]): 1.486%; autophagy induction (U2OS [2]; [11]): -12.1559%; autophagy induction (U2OS [2]; [12]): -5.674%; autophagy induction (U2OS [2]; [13]): -8.912%; autophagy induction (U2OS [2]; [14]): -14.6191% |
